Laboratory results as given in patent US9994552B2, “Compositions useful for treating disorders related to kit” (BLUEPRINT MEDICINES CORPORATION, priority 2013, dated 2018).

Tests used:
D816V Kit = D816V Kit (Homo sapiens (Human), UniProt P10721, D816V); test: Kit D816V assay at Km (Caliper electrophoretic mobility shift); type: biochemical; conditions: for IC50: D816V Kit 0.5 nM, 15 uM ATP (Km), 1 uM Srctide, 25 C, 90 minutes, read-out: INH-KITD816V ENZ-KM IC50 (nM) (Num); for times more potent against the D816V mutant than against the wild-type Kit: D816V Kit versus wild-type Kit, enzyme assays at Km
Protocol: (§1) In order to assess the activity of chemical compounds against the relevant kinase of interest, the Caliper LifeSciences electrophoretic mobility shift technology platform is used. Fluorescently labeled substrate peptide is incubated in the presence of kinase and ATP so that a […] proportion of the peptide is phosphorylated. At the end of the reaction, the mix of phosphorylated (product) and non-phosphorylated (substrate) peptides are passed through the microfluidic system of the Caliper EZ Reader 2, under an applied potential difference. The presence of the phosphate group on the product peptide provides a difference in mass and charge between those of the substrate peptide, resulting in a separation of the substrate and product pools in the sample. As the pools pass a LEDS within the instrument, these pools are detected and resolved as separate peaks. The ratio between these peaks therefore reflects the activity of the chemical matter at that concentration in that well, under those conditions.
(§2) The reaction was stopped by the addition of 70 ul of Stop buffer (100 mM HEPES pH 7.5, 0.015% Brij 35, 35 mM EDTA and 0.2% of Coating Reagent 3 (Caliper Lifesciences)). The plate was then read on a Caliper EZReader 2 (protocol settings: −1.9 psi, upstream voltage −700, downstream voltage −3000, post sample sip 35 s).

wild type Kit = wild type Kit (Homo sapiens (Human), UniProt P10721); test: Kit wild type assay at Km (Caliper electrophoretic mobility shift); type: biochemical; conditions: wild type Kit 2 nM, 400 uM ATP (Km), 1 uM Srctide, 25 C, 90 minutes; read-out: INH-KITWT ENZ-KM IC50 (nM) (Num)
Protocol: as §1, §2

wild type Kit, sequence (P10721 26-976): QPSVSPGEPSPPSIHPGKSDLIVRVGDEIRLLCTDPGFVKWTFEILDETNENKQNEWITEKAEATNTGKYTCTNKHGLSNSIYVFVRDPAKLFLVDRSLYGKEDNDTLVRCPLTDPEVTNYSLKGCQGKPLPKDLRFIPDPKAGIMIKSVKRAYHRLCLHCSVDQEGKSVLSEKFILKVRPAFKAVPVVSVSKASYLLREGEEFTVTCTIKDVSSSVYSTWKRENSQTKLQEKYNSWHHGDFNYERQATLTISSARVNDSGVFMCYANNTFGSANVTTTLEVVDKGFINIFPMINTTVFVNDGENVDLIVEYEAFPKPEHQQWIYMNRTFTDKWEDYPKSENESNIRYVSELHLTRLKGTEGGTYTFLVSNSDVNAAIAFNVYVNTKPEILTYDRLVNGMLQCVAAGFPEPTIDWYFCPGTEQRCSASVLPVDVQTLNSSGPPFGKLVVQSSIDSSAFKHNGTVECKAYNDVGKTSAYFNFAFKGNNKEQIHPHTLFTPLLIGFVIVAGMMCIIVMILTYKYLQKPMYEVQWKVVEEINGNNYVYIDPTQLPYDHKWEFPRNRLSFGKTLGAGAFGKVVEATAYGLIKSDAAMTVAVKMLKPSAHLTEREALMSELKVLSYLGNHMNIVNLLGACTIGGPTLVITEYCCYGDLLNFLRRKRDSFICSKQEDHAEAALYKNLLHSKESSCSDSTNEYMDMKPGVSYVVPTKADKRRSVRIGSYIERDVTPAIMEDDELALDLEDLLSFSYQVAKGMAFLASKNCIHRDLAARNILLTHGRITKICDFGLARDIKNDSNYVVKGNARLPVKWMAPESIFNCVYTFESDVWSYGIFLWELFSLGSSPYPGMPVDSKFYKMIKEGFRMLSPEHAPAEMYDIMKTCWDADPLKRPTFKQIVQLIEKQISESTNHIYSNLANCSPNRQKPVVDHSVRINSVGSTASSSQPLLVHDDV
D816V Kit, sequence (P10721 26-976 D816V): as the sequence (P10721 26-976) above, with D791V counted along it

| IC50 (D816V Kit) | IC50 (wild type Kit) | times more potent against the D816V mutant than against the wild-type Kit (D816V Kit) | Structure (SMILES) |
| --- | --- | --- | --- |
| > 100 nM | > 1000 nM |  | c1ccc(Cc2cnc(N3CCN(c4ncnc5c4CNC5)CC3)nc2)cc1 [Compound 2] |
| > 100 nM | > 1000 nM |  | COc1cc2ncnc(N3CCN(c4ncc(OCC5CC5)cn4)CC3)c2cc1OC [Compound 6] |
| 10 to 100 nM | > 1000 nM |  | COc1ccc2c(N3CCN(c4ncc(OCc5ccccc5)cn4)CC3)ncnc2c1 [Compound 8] |
| > 100 nM | > 1000 nM |  | COc1cc2ncnc(N3CCN(c4ncc(-c5ccccc5)cn4)CC3)c2cc1OC [Compound 9] |
| > 100 nM | > 1000 nM |  | COc1ccc2ncnc(N3CCN(c4ncc(OCc5ccccc5)cn4)CC3)c2c1 [Compound 10] |
| > 100 nM | > 1000 nM |  | COc1cc2ncnc(N3CCN(c4nccc(Cc5ccccc5)n4)CC3)c2cc1OC [Compound 12] |
| 1.01 to 10 nM | 11 to 100 nM |  | COc1cc2ncnc(N3CCN(c4ncc(Oc5ccccc5)cn4)CC3)c2cc1OC [Compound 14, 6,7-dimethoxy-4-(4-(5-phenoxypyrimidin-2-yl)piperazin-1-yl)quinazoline] |
| 10 to 100 nM | 100 to 1000 nM |  | COc1cc2ncnc(N3CCN(c4ncc(Nc5ccccn5)cn4)CC3)c2cc1OC [Compound 15] |
| 10 to 100 nM | 100 to 1000 nM |  | COc1cc2ncnc(N3CCN(c4ncc(Nc5cccnc5)cn4)CC3)c2cc1OC [Compound 16] |
| > 100 nM | > 1000 nM |  | COc1cc2ncnc(N3CCN(c4ncc(Nc5ccncc5)cn4)CC3)c2cc1OC [Compound 17] |
| > 100 nM | > 1000 nM | at least 100 times | COc1cc2ncnc(N3CCN(c4ncc(OCC5CCCC5)cn4)CC3)c2cc1OC [Compound 18] |
| > 100 nM | > 1000 nM | less than 5 times | COc1cc2ncnc(N3CCN(c4ncc(-c5ccc(C#N)cc5)cn4)CC3)c2cc1OC [Compound 19] |
| 10 to 100 nM | > 1000 nM | at least 100 times | COc1cc2ncnc(N3CCN(c4ncc(Cc5ccccc5)cn4)CC3)c2cc1C(N)=O [Compound 20] |
| > 100 nM | > 1000 nM | less than 5 times | COc1cc2ncnc(N3CCN(c4ncc(Cc5ccccc5)cn4)C(=O)C3)c2cc1OC [Compound 21] |
| 1.01 to 10 nM | 100 to 1000 nM |  | COc1cc2ncnc(N3CCN(c4ncc(CCc5ccccc5)cn4)CC3)c2cc1OC [Compound 24] |
| 10 to 100 nM | 100 to 1000 nM |  | COc1cc2ncnc(N3CCN(c4ncc(Cc5ccccc5C)cn4)CC3)c2cc1OC [Compound 25] |
| 10 to 100 nM | 100 to 1000 nM |  | COc1cc2ncnc(N3CCN(c4ncc(Cc5ccccc5)cn4)C(C)C3)c2cc1OC (stereo not shown) [Compound 26] |
| > 100 nM | > 1000 nM |  | COc1cc2ncnc(N3CCN(c4ncc(Cc5ccccc5)cn4)C[C@@H]3C)c2cc1OC [Compound 27] |
| > 100 nM | > 1000 nM | less than 5 times | COc1cc2ncnc(N3CCN(c4ncc(Cc5ccccc5)cn4)C[C@H]3C)c2cc1OC [Compound 28] |
| < 1 nM | < 10 nM |  | COc1cc2ncnc(N3CCN(c4ncc(Cc5ccccc5)c(N)n4)CC3)c2cc1OC [Compound 29] |
| 1.01 to 10 nM | 100 to 1000 nM |  | COc1cc2ncnc(N3CCN(c4ncc(Nc5ccc(C)cc5)cn4)CC3)c2cc1OC [Compound 31] |
| 10 to 100 nM | 100 to 1000 nM |  | COc1cc2ncnc(N3CCN(c4ncc(Nc5ccccc5C)cn4)CC3)c2cc1OC [Compound 32] |
| 10 to 100 nM | 100 to 1000 nM |  | COc1cc2ncnc(N3CCN(c4ncc(Nc5cccc(C)c5)cn4)CC3)c2cc1OC [Compound 33] |
| 10 to 100 nM | 100 to 1000 nM |  | COc1cc2ncnc(N3CCN(c4ncc(NCc5ccccc5)cn4)CC3)c2cc1OC [Compound 34, N-benzyl-2-(4-(6,7-dimethoxyquinazolin-4-yl)piperazin-1-yl)pyrimidin-5-amine] |
| 1.01 to 10 nM | 100 to 1000 nM |  | COc1cc2ncnc(N3CCN(c4ncc(OCc5ccccc5)cn4)CC3)c2cc1OC [Compound 37, 4-(4-(5-(benzyloxy)pyrimidin-2-yl)piperazin-1-yl)-6,7-dimethoxyquinazoline] |
| 1.01 to 10 nM | 11 to 100 nM |  | COc1cc2ncnc(N3CCN(c4ncc(Cc5ccc(F)cc5)cn4)CC3)c2cc1OC [Compound 38, 4-(4-(5-(4-fluorobenzyl)pyrimidin-2-yl)piperazin-1-yl)-6,7-dimethoxyquinazoline] |

| IC50 (D816V Kit) | IC50 (wild type Kit) | times more potent against the D816V mutant than against the wild-type Kit (D816V Kit) | Structure (SMILES) |
| --- | --- | --- | --- |
| 1.01 to 10 nM | 100 to 1000 nM |  | COc1cc2ncnc(N3CCN(c4ncc(Cc5cccc(F)c5)cn4)CC3)c2cc1OC [Compound 39] |
| 1.01 to 10 nM | 100 to 1000 nM |  | COc1cc2ncnc(N3CCN(c4ncc(Sc5ccccc5)cn4)CC3)c2cc1OC [Compound 40] |
| > 100 nM | > 1000 nM | less than 5 times | COc1cc2ncnc(N3CCN(c4ncc(Br)c(OC)n4)CC3)c2cc1OC [Compound 41] |
| 1.01 to 10 nM | 100 to 1000 nM |  | COc1cc2ncnc(N3CCN(c4ncc(OCc5cccs5)cn4)CC3)c2cc1OC [Compound 43] |
| 10 to 100 nM | 100 to 1000 nM |  | COc1cc2ncnc(N3CCN(c4ncc(OCc5ccsc5)cn4)CC3)c2cc1OC [Compound 44] |
| 1.01 to 10 nM | 100 to 1000 nM |  | COc1cc2ncnc(N3CCN(c4ncc(Cc5ccc(C#N)cc5)cn4)CC3)c2cc1OC [Compound 45] |
| 10 to 100 nM | 100 to 1000 nM |  | COc1cc2ncnc(N3CCN(c4ncc(Cc5cccc(C#N)c5)cn4)CC3)c2cc1OC [Compound 46] |
| 10 to 100 nM | > 1000 nM | at least 100 times | COc1cc2ncnc(N3CCN(c4ncc(Nc5ccc(C#N)cc5)cn4)CC3)c2cc1OC [Compound 47] |
| 10 to 100 nM | 100 to 1000 nM |  | COc1cc2ncnc(N3CCN(c4ncc(N5CCc6ccccc65)cn4)CC3)c2cc1OC [Compound 49] |
| > 100 nM | > 1000 nM | less than 5 times | c1ccc(Cc2cnc(N3CCN(c4ncnc5c4CN(CC4CCNCC4)C5)CC3)nc2)cc1 [Compound 50] |
| 10 to 100 nM | > 1000 nM |  | COc1cc2ncnc(N3CCN(c4ncc(C(=O)Nc5ccccc5)cn4)CC3)c2cc1OC [Compound 51] |
| 1.01 to 10 nM | 11 to 100 nM |  | COc1cc2ncnc(N3CCN(c4ncc(N(C)Cc5ccccc5)cn4)CC3)c2cc1OC [Compound 52] |
| 10 to 100 nM | 100 to 1000 nM |  | COc1cc2ncnc(N3CCN(c4ncc(NCc5ccc(C)cc5)cn4)CC3)c2cc1OC [Compound 53] |
| 10 to 100 nM | 100 to 1000 nM |  | COc1cc2ncnc(N3CCN(c4ncc(NCc5ccccc5C)cn4)CC3)c2cc1OC [Compound 54] |
| 10 to 100 nM | > 1000 nM |  | COc1cc2ncnc(N3CCN(c4ncc(NCc5cccc(C)c5)cn4)CC3)c2cc1OC [Compound 55] |
| 10 to 100 nM | > 1000 nM |  | COc1cc2ncnc(N3CCN(c4ncc(NC(C)c5ccccc5)cn4)CC3)c2cc1OC (stereo not shown) [Compound 56] |
| < 1 nM | 11 to 100 nM | at least 100 times | COc1cccc(Cc2cnc(N3CCN(c4ncnc5cc(OC)c(OC)cc45)CC3)nc2)c1 [Compound 57] |
| 1.01 to 10 nM | 11 to 100 nM |  | COc1ccc(Cc2cnc(N3CCN(c4ncnc5cc(OC)c(OC)cc45)CC3)nc2)cc1 [Compound 58] |
| 1.01 to 10 nM | 100 to 1000 nM |  | COc1cc2ncnc(N3CCN(c4ncc(O[C@H](C)c5ccccc5)cn4)CC3)c2cc1OC [Compound 59] |
| 10 to 100 nM | 100 to 1000 nM |  | COc1cc2ncnc(N3CCN(c4ncc(OCc5ccccc5)cn4)[C@H](C)C3)c2cc1OC [Compound 60] |
| 10 to 100 nM | 100 to 1000 nM |  | COc1cc2ncnc(N3CCN(c4ncc(OCc5cccc(C)c5)cn4)CC3)c2cc1OC [Compound 61] |
| 10 to 100 nM | > 1000 nM | at least 100 times | COc1cc2ncnc(N3CCN(c4ncc(OCc5ccc(C)cc5)cn4)CC3)c2cc1OC [Compound 62] |
| 10 to 100 nM | 100 to 1000 nM |  | COc1cc2ncnc(N3CCN(c4ncc(OC(C)c5ccccc5)cn4)CC3)c2cc1OC (stereo not shown) [Compound 63] |
| 10 to 100 nM |  |  | COc1cc2c(N3CCN(c4ncc(Cc5ccccc5)cn4)CC3)ncnc2cc1OC(F)F [Compound 72] |
| > 100 nM |  |  | COc1cc2ncnc(N3CCN(c4ncc(NCc5ccc6c(c5)OCO6)cn4)CC3)c2cc1OC [Compound 83] |

| Structure (SMILES) | IC50 (D816V Kit) | IC50 (wild type Kit) | times more potent against the D816V mutant than against the wild-type Kit (D816V Kit) |
| --- | --- | --- | --- |
| COc1cc2ncnc(N3C[C@H]4CC[C@@H](C3)N4c3ncc(Cc4ccccc4)cn3)c2cc1OC [Compound 48, 4-((1R,5S)-8-(5-Benzylpyrimidin-2-yl)-3,8-diazabicyclo[3.2.1]octan-3-yl)-6,7-dimethoxyquinazoline] | 1.01 to 10 nM | 11 to 100 nM |  |
